Laboratory results reported in PubChem BioAssay (NCI).
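Cells were grown in 96-well plates and exposed to each compound for 48 hours at five concentrations; endpoints were interpolated linearly between bracketing concentrations, or set to the highest concentration if not reached. TGI is the concentration that stops growth completely.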

Tests used:
Test in all cases: NCI-60 cell line screen, 48 h
786-0 renal = tested on: 786-0 renal
BT-549 breast = tested on: BT-549 breast
CAKI-1 renal = tested on: CAKI-1 renal
EKVX NSCLC = tested on: EKVX NSCLC
HOP-92 NSCLC = tested on: HOP-92 NSCLC
K-562 leukemia = tested on: K-562 leukemia
MDA-MB-435 = tested on: MDA-MB-435
MOLT-4 leukemia = tested on: MOLT-4 leukemia
SF-268 CNS = tested on: SF-268 CNS
SNB-19 CNS = tested on: SNB-19 CNS
U251 CNS = tested on: U251 CNS

Measured: TGI

O=c1c2c3c(sc2nc2n1N=C(c1ccc(Br)cc1)CS2)CCCC3
> 100 µM: all assays above

Cc1cc(-c2ccccc2)nc2oc(=O)n(C)c12
> 100 µM: all assays above

COc1ccc(-c2cc3cc(Cl)cc(Cl)c3oc2=O)cc1OC
> 100 µM: all assays above

Cc1c(C(=O)NNc2ccccc2)n2c(=S)[nH]nc2c2ccccc12
> 100 µM: all assays above

Cc1ccc(C)c(COCCOCn2cc(N3CCOCC3)c(=O)[nH]c2=O)c1
> 100 µM: all assays above

O=c1c2cc([N+](=O)[O-])ccc2oc2nc3n(c(=O)c12)CCCS3
> 100 µM: all assays above
